Assays:
[1] = Water solubility test of coated urea (5 gram sample in 200 grams distilled water at 39° C., urea dissolved after 10 hours); assay type: physicochemical
Experimental: The mixture was swirled briefly only when the sample was added and at the end of 10 hours. The percent of the urea dissolved in 10 hours was measured to be 45 by weight.

Fresh rumen fluid = test: In-vitro urea conversion test: ruminal synthesis of urea to microbial crude protein (MCP) in rumen fluid; parameters: species or system heifer
Experimental: A series of urea conversion in-vitro tests were arranged using the following materials: (1) Fresh rumen fluid withdrawn via a pump through a strainer from a heifer receiving no feed for the prior two days. (2) Simulated Saliva composition of E. I. McGougal in Biochemical Journal, Vol. 43, page 106. (3) Cellulose energy source, Whatman Chromedia Microgranular Cellulose, free from other nutrient compounds. […] The in-vitro tests were run with each sample in a 250 ml Erlenmeyer flask receiving the ingredients listed as follows: [table] The test flasks were placed in a constant temperature bath operating at 39° C. Carbon dioxide was used to displace the air in the flasks. Samples amounting to 10 grams were withdrawn on an accurate time schedule with the air in the sample container replaced by carbon dioxide. The samples were immediately treated with 1 percent mercuric chloride to terminate microbial activity in the samples. The samples were analyzed for total nitrogen, ammonia nitrogen, and […] by difference.

NC(N)=O [Test No. 6, urea]
urea water solubilities at 39° C. (in words) [1]: high
synthesis efficiencies to MCP (in words) (Fresh rumen fluid; after 8 hours): low
Urea Synthesized to MCP (Fresh rumen fluid; rumen fluid, 8 hours): 3.6%

Reference: US20040039062A1, “Urea, ruminally synthesizable mainly to microbial crude protein” (Agri-Nutrients Technology Group, Inc., priority 2002, published 2004)
